# Earlier results, collected in patent US20070196518A1, “Composition and Method for Mitigating a Negative Effect of Alcohol Consumption” (priority 2005, published 2007).
# Conditions: on average, in subjects who consumed alcohol
smiles,measurement,value
"Cc1ncc(CO)c(CO)c1O [Vitamin B6, Pyridoxine]",decrease in the number of hangover symptoms,50%
